PubChem BioAssay (NCI)
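96-well plates; 48 h exposure; 5 concentrations. Endpoints by linear interpolation between flanking doses. Not reached: highest tested concentration assigned. Here, GI50 denotes the concentration required for 50% inhibition of growth. TGI: concentration producing complete growth inhibition.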

What was measured:
Assay in all cases: growth of human tumour cells (NCI), 48 h
CCRF-CEM leukemia = test system: CCRF-CEM leukemia
COLO 205 colon = test system: COLO 205 colon
HCC-2998 colon = test system: HCC-2998 colon
HOP-62 NSCLC = test system: HOP-62 NSCLC
KM12 colon = test system: KM12 colon
NCI-H522 lung = test system: NCI-H522 lung
OVCAR-5 ovarian = test system: OVCAR-5 ovarian
SK-MEL-5 melanoma = test system: SK-MEL-5 melanoma
SNB-19 CNS = test system: SNB-19 CNS
SNB-75 CNS = test system: SNB-75 CNS

| Compound | GI50 (CCRF-CEM leukemia) | TGI (CCRF-CEM leukemia) | GI50 (COLO 205 colon) | TGI (COLO 205 colon) | GI50 (HCC-2998 colon) | TGI (HCC-2998 colon) | GI50 (HOP-62 NSCLC) | TGI (HOP-62 NSCLC) | GI50 (KM12 colon) | TGI (KM12 colon) | GI50 (NCI-H522 lung) | TGI (NCI-H522 lung) | GI50 (OVCAR-5 ovarian) | TGI (OVCAR-5 ovarian) | GI50 (SK-MEL-5 melanoma) | TGI (SK-MEL-5 melanoma) | GI50 (SNB-19 CNS) | TGI (SNB-19 CNS) | GI50 (SNB-75 CNS) | TGI (SNB-75 CNS) |
| --- | --- | --- | --- | --- | --- | --- | --- | --- | --- | --- | --- | --- | --- | --- | --- | --- | --- | --- | --- | --- |
| COC(=O)C(Cc1ccccc1)NC(=O)NC(=O)NC(=O)CI (centres undefined) | 1.14 µM | 3.81 µM | 1.83 µM | 3.56 µM | 17.2 µM | 33.3 µM | 18 µM | 33.7 µM | 15.8 µM | 32.6 µM | 1.61 µM | 3.38 µM | 13 µM | 29.7 µM | 15.5 µM | 29 µM | 17.6 µM | 36.4 µM | 16.2 µM | 36.7 µM |
| CCN1CCC(CCOC)(CN2c3ccccc3Sc3ccc(Cl)cc32)C1 (centres undefined) | 3.57 µM | > 100 µM | 1.71 µM | 3.29 µM | 1.63 µM | 3.2 µM | 1.67 µM | 3.13 µM | 1.79 µM | 3.43 µM | 1.74 µM | 3.59 µM | 1.83 µM | 3.88 µM | 1.69 µM | 3.07 µM | 2.65 µM | 7.31 µM | 2.25 µM | 5.8 µM |
| COc1cc(C(=O)C/C(CCC(=O)Nc2ccccc2[N+](=O)[O-])=N\NC(=O)CC#N)ccc1O |  | > 100 µM |  | > 100 µM |  | > 100 µM |  | > 100 µM |  | > 100 µM |  | > 100 µM |  | > 100 µM |  | > 100 µM |  | > 100 µM |  | > 100 µM |
| COc1cc2c(cc1OCCCCOc1cc3c(cc1OC)C(=O)N1CCC[C@H]1CN3)N=C[C@@H]1CCCN1C2=O | 0.243 µM |  | 1.3 µM | 5.33 µM | 2 µM | 5.64 µM | 3.36 µM | > 100 µM | 1.97 µM | 86.2 µM | 0.072 µM | 0.386 µM | 3.09 µM | > 28.7 µM | 0.463 µM | 1.62 µM | 3.16 µM | > 100 µM | 3.58 µM | 16.9 µM |
| CCOC(=O)c1oc2ccc(OC)c3c2c1CCC3 |  | > 100 µM |  | > 100 µM |  | > 100 µM |  | > 100 µM |  | > 100 µM |  | > 100 µM |  | > 100 µM |  | > 100 µM |  | > 100 µM |  | > 100 µM |
| CN(C)c1ccc(/C=C\c2cccc[n+]2C)cc1 | 4.54 µM | > 100 µM | 1.22 µM | 2.81 µM | 3.68 µM | 39.2 µM | 5.83 µM | 90.7 µM | 0.821 µM | 13.4 µM | 10.2 µM | > 100 µM | 19.2 µM | > 100 µM | 2.99 µM | 11.6 µM | 4.83 µM | > 100 µM | 6.26 µM | 49.5 µM |
| O=C(O)C/C=C/CC(=O)O |  | > 100 µM |  | > 100 µM |  | > 100 µM |  | > 100 µM |  | > 100 µM |  | > 100 µM |  | > 100 µM |  | > 100 µM |  | > 100 µM |  | > 100 µM |
| C=CC(=O)N(C)[C@H]1C[C@H]2OC(C)(C1OC)n1c3ccccc3c3c4c(c5c6ccccc6n2c5c31)C(=O)NC4 (some centres undefined) | 0.0337 µM | 1.35 µM | 0.0831 µM | 0.253 µM | 0.575 µM | 1.46 µM | 0.0193 µM | 0.176 µM | 0.0228 µM | 0.79 µM | 0.0839 µM | 0.565 µM | 0.106 µM | > 50 µM | 0.262 µM | 0.972 µM | 0.17 µM | 1.71 µM | 0.0137 µM | 0.0766 µM |
| O=[N+]([O-])c1cccc(-c2nc3sccn3c2-c2ccnc(NCCCNS(=O)(=O)c3cccc(F)c3)n2)c1 | 1.3 µM | > 100 µM | 2.46 µM | 8.11 µM | 6.79 µM | > 100 µM | 3.5 µM | 14.1 µM | 2.39 µM | 8.14 µM | 2.02 µM | 7.97 µM | 7.83 µM | > 100 µM | 0.824 µM | 2.1 µM | 4.34 µM | 61.8 µM | 1.52 µM | 4.24 µM |
| Cc1cc(N/N=C/c2nc(-c3ccc(Br)cc3)oc2C)c2cc(Cl)ccc2n1 | > 100 µM | > 100 µM | > 100 µM | > 100 µM | > 100 µM | > 100 µM | > 100 µM | > 100 µM | > 100 µM | > 100 µM | > 100 µM | > 100 µM | > 100 µM | > 100 µM | > 100 µM | > 100 µM | > 100 µM | > 100 µM | > 100 µM | > 100 µM |
| O=c1[nH]c2ccccc2nc1-c1c[nH]c2ccccc12 | > 100 µM | > 100 µM | > 100 µM | > 100 µM | > 100 µM | > 100 µM | > 100 µM | > 100 µM | 1.39 µM | > 100 µM | > 100 µM | > 100 µM | > 100 µM | > 100 µM | > 100 µM | > 100 µM | > 100 µM | > 100 µM | 2.93 µM | > 100 µM |
| N#C/C(=C\c1c(-c2ccccc2)[nH]c2ccccc12)S(=O)(=O)c1ccccc1 | 2.38 µM | 18.4 µM | 1.38 µM | 17 µM | 10.9 µM | 34.3 µM | 8.06 µM | > 100 µM | 0.625 µM | 13.9 µM | 4.51 µM | 25.5 µM | 18.2 µM | 98.1 µM | 1.82 µM | 11.5 µM | 7.08 µM | > 88.2 µM | 1.67 µM | 29.4 µM |
| COC(=O)Cn1c2c(c3c(O)cccc31)C(=O)c1ccccc1-2 | > 100 µM | > 100 µM | > 100 µM | > 100 µM | > 100 µM | > 100 µM | > 100 µM | > 100 µM | > 100 µM | > 100 µM | > 100 µM | > 100 µM | > 100 µM | > 100 µM | > 100 µM | > 100 µM | > 100 µM | > 100 µM | > 100 µM | > 100 µM |
